# Measurements taken from patent US20240351997A1, “NOVEL PARP7 INHIBITOR AND USE THEREOF” (SHANGHAI QILU PHARMACEUTICAL RESEARCH AND DEVELOPMENT …, priority 2021, published 2024).
# Target: PARP7 (Homo sapiens (Human), UniProt Q7Z3E1)
# Experiment: In vitro enzymology experiment of PARP7 (enzymatic inhibition)
# Format: biochemical
# Experimental: II. In Vitro Enzymology Experiment of PARP2, 3, 5A, 5B, 7, 12, and 15
# 1. Preparation of 384-well histone-coated plate: 25 μL of histone solution was added to each well, and the plate was incubated overnight at 4° C.
# 2. Preparation of PBST buffer, blocking buffer, and assay buffer
# 3. The 384-well histone-coated plate was washed three times with PBST buffer. The plate was blocked by 50 μL of blocking buffer for 1 hour at room temperature. The plate was then washed three times with PBST buffer.
# 2000× compound was prepared in a 96-well source plate. 50 nL of the compound was transferred from the source plate to a 96-well intermediate plate, and 39.95 μL of assay buffer was added to each well. The plate was shaken well and centrifuged at 1000 rpm for 1 minute.
# 5 μL of compound DMSO solution was transferred to each well.
# An enzyme mixture was incubated at 25° C. for 10 minutes.
# 10 μL of the enzyme mixture was added, and incubated with the compound at room temperature for 10 minutes.
# 10 μL of assay buffer was added to the negative control well of the assay plate.
# The plate was then washed three times with PBST buffer.
# 25 μL of Stre-HRP was added.
# The plate was incubated at room temperature for 1 hour and washed three times with PBS buffer.
# 25 μL of QuantaRed Enhancer mix was added. The plate was incubated for 10 minutes.
# 2.5 μL of QuantaRed Stop Solution was added to terminate the peroxidase reaction, and the plate was shaken for 10 to 30 seconds.
# 7. Paradigm was used to read the plate immediately to detect the readings at Ex550/Em620.
# Using equation (1) to fit the data in Excel to obtain inhibition values
# Using equation (2) to fit the data in XL-Fit to obtain IC50 values
# Y is the percentage of inhibition, and X is the compound concentration.
# Sequence of PARP7 (Q7Z3E1 whole entry): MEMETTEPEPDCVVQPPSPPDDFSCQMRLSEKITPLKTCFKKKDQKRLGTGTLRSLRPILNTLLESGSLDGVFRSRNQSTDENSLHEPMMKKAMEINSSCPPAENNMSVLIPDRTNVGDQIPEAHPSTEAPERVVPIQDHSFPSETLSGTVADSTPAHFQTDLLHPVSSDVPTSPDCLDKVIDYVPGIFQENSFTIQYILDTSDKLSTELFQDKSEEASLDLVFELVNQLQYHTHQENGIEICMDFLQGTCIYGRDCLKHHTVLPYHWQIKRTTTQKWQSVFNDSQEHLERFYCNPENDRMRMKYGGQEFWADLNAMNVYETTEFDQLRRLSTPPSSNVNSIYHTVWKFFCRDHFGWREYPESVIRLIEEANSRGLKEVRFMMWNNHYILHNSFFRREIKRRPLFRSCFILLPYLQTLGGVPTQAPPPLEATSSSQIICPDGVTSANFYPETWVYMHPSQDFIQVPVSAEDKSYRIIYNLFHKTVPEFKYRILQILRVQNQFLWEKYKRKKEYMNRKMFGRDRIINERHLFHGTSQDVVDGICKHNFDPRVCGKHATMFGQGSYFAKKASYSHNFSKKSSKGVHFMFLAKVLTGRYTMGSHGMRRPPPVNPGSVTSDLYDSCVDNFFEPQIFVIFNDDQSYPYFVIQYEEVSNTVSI
row,SMILES,IC50 [nM]
1,"COC[C@@H]1CN(c2ncc(C(F)(F)F)cn2)CCN1C(=O)OCCc1c[nH]c(=O)c(C(F)(F)F)c1 (stereo in doubt) [Example 129, 2-(6-Oxo-5-(trifluoromethyl)-1,6-dihydropyridin-3-yl)ethyl 2-(methoxymethyl)-4-(5-(trifluoromethyl)pyrimidin-2-yl)piperazine-1-carboxylate]",0.39
2,"O=C(Cc1cc(C(F)(F)F)c(=O)[nH]n1)NCC(=O)N1CCN(c2ncc(C(F)(F)F)cn2)CC1 [Example 5, N-(2-Oxo-2-(4-(5-(trifluoromethyl)pyrimidin-2-yl)piperazin-1-yl)ethyl)-2-(6-oxo-5-(trifluoromethyl)-1,6-dihydropyridazin-3-yl)acetamide]",5.83
3,"O=C(CCOCCN1CCCc2c1cn[nH]c2=O)N1CCN(c2ncc(C(F)(F)F)cn2)CC1 [Example 13, 1-(2-(3-Oxo-3-(4-(5-(trifluoromethyl)pyrimidin-2-yl)piperazin-1-yl)propoxy)ethyl)-2,3,4,6-tetrahydropyrido[2,3-d]pyridazin-5(1H)-one]",5.98
4,"O=C(CCOc1c[nH]c(=O)c(C(F)(F)F)c1)N1CCN(c2ncc(C(F)(F)F)cn2)CC1 [Example 17, 5-(3-Oxo-3-(4-(5-(trifluoromethyl)pyrimidin-2-yl)piperazin-1-yl)propoxy)-3-(trifluoromethyl)pyridin-2(1H)-one]",2.79
5,"O=C(CCOCCn1c(=O)ccc2c(=O)[nH]ncc21)N1CCN(c2ncc(C(F)(F)F)cn2)CC1 [Example 22, 1-(2-(3-Oxo-3-(4-(5-(trifluoromethyl)pyrimidin-2-yl)piperazin-1-yl)propoxy)ethyl)pyrido[2,3-d]pyridazine-2,5(1H,6H)-dione]",3.6
6,"O=C(c1cccc(Cc2c[nH]c(=O)c(C(F)(F)F)c2)c1)N1CCN(c2ncc(C(F)(F)F)cn2)CC1 [Example 30, 3-(Trifluoromethyl)-5-(3-(4-(5-(trifluoromethyl)pyrimidin-2-yl)piperazine-1-carbonyl)benzyl)pyridin-2(1H)-one]",0.9
7,"O=C(CCNc1c[nH]c(=O)c(C(F)(F)F)c1)N1CCN(c2ncc(C(F)(F)F)cn2)CC1 [Example 31, 5-((3-Oxo-3-(4-(5-(trifluoromethyl)pyrimidin-2-yl)piperazin-1-yl)propyl)amino)-3-(trifluoromethyl)pyridin-2(1H)-one]",1.19
8,"O=C(NCCc1c[nH]c(=O)c(C(F)(F)F)c1)N1CCN(c2ncc(C(F)(F)F)cn2)CC1 [Example 32, N-(2-(6-Oxo-5-(trifluoromethyl)-1,6-dihydropyridin-3-yl)ethyl)-4-(5-(trifluoromethyl)pyrimidin-2-yl)piperazine-1-carboxamide]",0.44
9,"O=C(CCCc1c[nH]c(=O)c(C(F)(F)F)c1)N1CCN(c2ncc(C(F)(F)F)cn2)CC1 [Example 37, 5-(4-Oxo-4-(4-(5-(trifluoromethyl)pyrimidin-2-yl)piperazin-1-yl)butyl)-3-(trifluoromethyl)pyridin-2(1H)-one]",0.9
10,"CC(CC(=O)N1CCN(c2ncc(C(F)(F)F)cn2)CC1)c1c[nH]c(=O)c(C(F)(F)F)c1 (centres unmarked) [Example 38, 5-(4-Oxo-4-(4-(5-(trifluoromethyl)pyrimidin-2-yl)piperazin-1-yl)butan-2-yl)-3-(trifluoromethyl)pyridin-2(1H)-one]",1.1
11,"O=C(CCO[C@H]1CCC[C@@H]1c1c[nH]c(=O)c(C(F)(F)F)c1)N1CCN(c2ncc(C(F)(F)F)cn2)CC1 [Example 39, 5-((1R,2S)-2-(3-Oxo-3-(4-(5-(trifluoromethyl)pyrimidin-2-yl)piperazin-1-yl)propoxy)cyclopentyl)-3-(trifluoromethyl)pyridin-2(1H)-one]",1.5
12,"O=C(c1cc(Cc2c[nH]c(=O)c(C(F)(F)F)c2)ccc1F)N1CCN(c2ncc(C(F)(F)F)cn2)CC1 [Example 40, 5-(4-Fluoro-3-(4-(5-(trifluoromethyl)pyrimidin-2-yl)piperazine-1-carbonyl)benzyl)-3-(trifluoromethyl)pyridin-2(1H)-one]",0.7
13,"CC(Cc1c[nH]c(=O)c(C(F)(F)F)c1)OC(=O)N1CCN(c2ncccn2)CC1 (centres unmarked) [Example 42, 1-(6-Oxo-5-(trifluoromethyl)-1,6-dihydropyridin-3-yl)propan-2-yl 4-(pyrimidin-2-yl)piperazine-1-carboxylate]",1.46
14,"Cc1cnc(N2CCN(C(=O)OC(C)Cc3c[nH]c(=O)c(C(F)(F)F)c3)CC2)nc1 (centres unmarked) [Example 43, 1-(6-Oxo-5-(trifluoromethyl)-1,6-dihydropyridin-3-yl)propan-2-yl 4-(5-methylpyrimidin-2-yl)piperazine-1-carboxylate]",0.9
15,"CC(Cc1c[nH]c(=O)c(C(F)(F)F)c1)OC(=O)N1CCN(c2ncc(Cl)cn2)CC1 (centres unmarked) [Example 44, 1-(6-Oxo-5-(trifluoromethyl)-1,6-dihydropyridin-3-yl)propan-2-yl 4-(5-chloropyrimidin-2-yl)piperazine-1-carboxylate]",0.8
16,"CC(Cc1c[nH]c(=O)c(C(F)(F)F)c1)OC(=O)N1CCN(c2ncc(C#N)cn2)CC1 (centres unmarked) [Example 45, 1-(6-Oxo-5-(trifluoromethyl)-1,6-dihydropyridin-3-yl)propan-2-yl 4-(5-cyanopyrimidine-2-yl)piperazine-1-carboxylate]",2.26
17,"CC(Cc1c[nH]c(=O)c(C(F)(F)F)c1)OC(=O)N1CCN(c2ncccc2C#N)CC1 (centres unmarked) [Example 46, 1-(6-Oxo-5-(trifluoromethyl)-1,6-dihydropyridin-3-yl)propan-2-yl 4-(3-cyanopyridin-2-yl)piperazine-1-carboxylate]",1.94

# Other lines, results leading:
row,IC50 [nM],SMILES
1,0.91,"O=C(O[C@@H]1CCC[C@H]1c1c[nH]c(=O)c(C(F)(F)F)c1)N1CCN(c2ncc(C(F)(F)F)cn2)CC1 (single isomer, unassigned) [Example 70]"
2,2.79,"O=C(COC[C@@H]1CCCN1c1c[nH]c(=O)c(C(F)(F)F)c1)N1CCN(c2ncc(C(F)(F)F)cn2)CC1 [Example 7, (S)-5-(2-((2-Oxo-2-(4-(5-(trifluoromethyl)pyrimidin-2-yl)piperazin-1-yl)ethoxy)methyl)pyrrolidin-1-yl)-3-(trifluoromethyl)pyridin-2(1H)-one]"
3,7.6,"O=C(CCOC[C@@H]1CCCN1c1c[nH]c(=O)c(C(F)(F)F)c1)N1CCN(c2ncc(C(F)(F)F)cn2)CC1 [Example 9, (S)-5-(2-((3-Oxo-3-(4-(5-(trifluoromethyl)pyrimidin-2-yl)piperazin-1-yl)propoxy)methyl)pyrrolidin-1-yl)-3-(trifluoromethyl)pyridin-2(1H)-one]"
4,6.7,"O=C(CCOC[C@H]1CCCN1c1c[nH]c(=O)c(C(F)(F)F)c1)N1CCN(c2ncc(C(F)(F)F)cn2)CC1 [Example 10, (R)-5-(2-((3-Oxo-3-(4-(5-(trifluoromethyl)pyrimidin-2-yl)piperazin-1-yl)propoxy)methyl)pyrrolidin-1-yl)-3-(trifluoromethyl)pyridin-2(1H)-one]"
5,0.8,"CC(COC(=O)N1CCN(c2ncc(C(F)(F)F)cn2)CC1)c1c[nH]c(=O)c(C(F)(F)F)c1 (centres unmarked) [Example 25, 2-(6-Oxo-5-(trifluoromethyl)-1,6-dihydropyridin-3-yl)propyl 4-(5-(trifluoromethyl)pyrimidin-2-yl)piperazine-1-carboxylate]"
6,0.6,C[C@H](COC(=O)N1CCN(c2ncc(C(F)(F)F)cn2)CC1)c1c[nH]c(=O)c(C(F)(F)F)c1 [Example 26]
7,1.1,C[C@@H](COC(=O)N1CCN(c2ncc(C(F)(F)F)cn2)CC1)c1c[nH]c(=O)c(C(F)(F)F)c1 [Example 27]
8,0.9,"O=C(CCc1c[nH]c(=O)c(C(F)(F)F)c1)N1CCN(c2ncc(C(F)(F)F)cn2)CC1 [Example 28, 5-(3-Oxo-3-(4-(5-(trifluoromethyl)pyrimidin-2-yl)piperazin-1-yl)propyl)-3-(trifluoromethyl)pyridin-2(1H)-one]"
9,5.6,"O=C(OC[C@@H]1CCCN1c1c[nH]c(=O)c(C(F)(F)F)c1)N1CCN(c2ncc(C(F)(F)F)cn2)CC1 [Example 29, (S)-(1-(6-Oxo-5-(trifluoromethyl)-1,6-dihydropyridin-3-yl)pyrrolidin-2-yl)methyl 4-(5-(trifluoromethyl)pyrimidin-2-yl)piperazine-1-carboxylate]"
10,0.9,"CC(Cc1c[nH]c(=O)c(C(F)(F)F)c1)OC(=O)N1CCN(c2ncc(C(F)(F)F)cn2)CC1 (centres unmarked) [Example 33, 1-(6-Oxo-5-(trifluoromethyl)-1,6-dihydropyridin-3-yl)propan-2-yl 4-(5-(trifluoromethyl)pyrimidin-2-yl)piperazine-1-carboxylate]"
11,0.38,"O=C(OC[C@H]1CCCN1c1c[nH]c(=O)c(C(F)(F)F)c1)N1CCN(c2ncc(C(F)(F)F)cn2)CC1 [Example 36, (R)-(1-(6-Oxo-5-(trifluoromethyl)-1,6-dihydropyridin-3-yl)pyrrolidin-2-yl)methyl 4-(5-(trifluoromethyl)pyrimidin-2-yl)piperazine-1-carboxylate]"
12,1.1,"O=C(OCC1(c2c[nH]c(=O)c(C(F)(F)F)c2)CC1)N1CCN(c2ncc(C(F)(F)F)cn2)CC1 [Example 41, (1-(6-Oxo-5-(trifluoromethyl)-1,6-dihydropyridin-3-yl)cyclopropyl)methyl 4-(5-(trifluoromethyl)pyrimidin-2-yl)piperazine-1-carboxylate]"
